Results published in EP4745137A1 (Gluetacs Therapeutics (Shanghai) Co., Ltd., priority 2023, dated 2025).

Assays:
CCRF-CEM = experiment: Tumor cell proliferation inhibition (CellTiter-Meiluncell Luminescent Cell Viability Assay), CCRF-CEM; conditions: Homo sapiens, 96 h, read-out: inhibitory activity (IC50, nM) against tumor cells proliferation, CCRF-CEM
IKZF1 = biological target: T1, IKZF1 (Homo sapiens, UniProt Q13422+Q96SW2); experiment: Western-blot assay of substrate protein degradation in hPBMCs, IKZF1; format: cell-based; conditions: 24 hours of compound treatment, compounds tested at 50 nM and 500 nM (concentration of the table not stated)
T1 construct: endogenous in cells; host or cells: hPBMCs (Milecell Biotechnologies)

[1] = biological target: T2, human Cereblon WT GST-tagged protein (Homo sapiens, UniProt Q96SW2); experiment: CRBN-binding affinity by HTRF (CEREBLON BINDING kit); conditions: HTRF inhibitory activity, CEREBLON BINDING kit; read-out: HTRF IC50
T2 construct: purchased CISBIO 64BDCRBNPEH

IKZF3 = biological target: T3, IKZF3 (Homo sapiens, UniProt Q96SW2+Q9UKT9); experiment: Western-blot assay of substrate protein degradation in hPBMCs, IKZF3; format: cell-based; conditions: 24 hours of compound treatment, compounds tested at 50 nM and 500 nM (concentration of the table not stated)
T3 construct: endogenous in cells; host or cells: hPBMCs (Milecell Biotechnologies)

CAL-62 = experiment: Tumor cell proliferation inhibition (CellTiter-Meiluncell Luminescent Cell Viability Assay), CAL-62; conditions: Homo sapiens, CAL-62, 96 h, read-out: inhibitory activity (IC50, nM) against tumor cells proliferation, CAL-62
CK1α = biological target: T4, CK1α (Homo sapiens, UniProt P48729+Q96SW2); experiment: Western-blot assay of substrate protein degradation in hPBMCs, CK1α; format: cell-based; conditions: 24 hours of compound treatment, compounds tested at 50 nM and 500 nM (concentration of the table not stated)
T4 construct: endogenous in cells; host or cells: hPBMCs (Milecell Biotechnologies)

Vcap = experiment: Tumor cell proliferation inhibition (CellTiter-Meiluncell Luminescent Cell Viability Assay), Vcap; conditions: Homo sapiens, 96 h, read-out: inhibitory activity (IC50, nM) against tumor cells proliferation, Vcap
Method: (§1) The tumor cells used herein were cultured in a cell culture medium listed in table 2 at 37°C in an incubator with 5% CO2. Prior to experimentation, all cell lines used were correctly identified by STR profiling, and tested negative for mycoplasma contamination using a mycoplasma detection kit through routine screenings.
(§2) On the following day, the test compounds of the present disclosure were subjected to serial dilution. […] Subsequently, 0.5 µL of the test compound dilution was transferred into the 96-well plate containing the cells, with each well containing 100 µL of cell culture medium. […] Into the 96-well plate, the diluted test compounds and corresponding detection reagents were added, resulting in final test compound concentrations of 500 nM and 10 nM, respectively. The experimental procedure is described below using the diluted 2 µM test compound as an example.
(§3) After the cells were treated with the compounds of the present disclosure for a specified period (the treatment durations were shown in Table 3), the cell viability assay reagent was added to the culture medium according to the kit's instructions to determine cell viability. […] All controls were treated using the same procedure as the compounds of the present disclosure. The growth inhibition curves for the compounds of the present disclosure were plotted using Prism GraphPad software, and the IC50 values were calculated therefrom.

IKZF2 = biological target: T5, IKZF2 (Homo sapiens, UniProt Q96SW2+Q9UKS7); experiment: Western-blot assay of substrate protein degradation in hPBMCs, IKZF2; format: cell-based; conditions: 24 hours of compound treatment, compounds tested at 50 nM and 500 nM (concentration of the table not stated)
T5 construct: endogenous in cells; host or cells: hPBMCs (Milecell Biotechnologies)

[2] = test system: Human acute T lymphocytic leukemia cells (Molt-4); experiment: Tumor cell proliferation inhibition (CellTiter-Meiluncell Luminescent Cell Viability Assay), Molt-4; conditions: MOLT-4, 96 h, read-out: inhibitory activity (IC50, nM) against tumor cells proliferation, Molt 4
[3] = test system: Human breast cancer cells (MDA-MB-231); experiment: Tumor cell proliferation inhibition (CellTiter-Meiluncell Luminescent Cell Viability Assay), MDA-MB-231; conditions: MDA-MB-231, 96 h, read-out: inhibitory activity (IC50, nM) against tumor cells proliferation, MDA-MB-231
NCI-H1975 = experiment: Tumor cell proliferation inhibition (CellTiter-Meiluncell Luminescent Cell Viability Assay), NCI-H1975; conditions: Homo sapiens, NCI-H1975, 96 h, read-out: inhibitory activity (IC50, nM) against tumor cells proliferation, H1975
Method: as §1, §2, §3

MM.1R = experiment: Tumor cell proliferation inhibition (CellTiter-Meiluncell Luminescent Cell Viability Assay), MM.1R; conditions: Homo sapiens, 96 h, read-out: inhibitory activity (IC50, nM) against tumor cells proliferation, MM.1R
SR = experiment: Tumor cell proliferation inhibition (CellTiter-Meiluncell Luminescent Cell Viability Assay), SR; conditions: Homo sapiens, 96 h, read-out: inhibitory activity (IC50, nM) against tumor cells proliferation, SR
SW620 = experiment: Tumor cell proliferation inhibition (CellTiter-Meiluncell Luminescent Cell Viability Assay), SW620; conditions: Homo sapiens, SW-620, 96 h, read-out: inhibitory activity (IC50, nM) against tumor cells proliferation, SW620
MGC803 = experiment: Tumor cell proliferation inhibition (CellTiter-Meiluncell Luminescent Cell Viability Assay), MGC803; conditions: Homo sapiens, MGC-803, 96 h, read-out: inhibitory activity (IC50, nM) against tumor cells proliferation, MGC803
Method: as §1
On the following day, the test compounds of the present disclosure were subjected to serial dilution. […] Subsequently, 0.5 µL of the test compound dilution was transferred into the 96-well plate containing the cells, with each well containing 100 µL of cell culture medium. […] Into the 96-well plate, the diluted test compounds and corresponding detection reagents were added, resulting in final test compound concentrations of 500 nM and 10 nM, respectively.
as §3

Jurkat = experiment: Tumor cell proliferation inhibition (CellTiter-Meiluncell Luminescent Cell Viability Assay), Jurkat; conditions: Homo sapiens, 96 h, read-out: inhibitory activity (IC50, nM) against tumor cells proliferation, Jurkat
Method: as §1, §2, §3

GSPT1 = biological target: T6, GSPT1 (Homo sapiens, UniProt P15170+Q96SW2); experiment: Western-blot assay of substrate protein degradation in hPBMCs, GSPT1; format: cell-based; conditions: 24 hours of compound treatment, compounds tested at 50 nM and 500 nM (concentration of the table not stated)
T6 construct: endogenous in cells; host or cells: hPBMCs (Milecell Biotechnologies)

WEE1 = biological target: T7, WEE1 (Homo sapiens, UniProt P30291+Q96SW2); experiment: Western-blot assay of substrate protein degradation in hPBMCs, WEE1; format: cell-based; conditions: 24 hours of compound treatment, compounds tested at 50 nM and 500 nM (concentration of the table not stated)
T7 construct: endogenous in cells; host or cells: hPBMCs (Milecell Biotechnologies)
T7 sequence (P30291 whole entry): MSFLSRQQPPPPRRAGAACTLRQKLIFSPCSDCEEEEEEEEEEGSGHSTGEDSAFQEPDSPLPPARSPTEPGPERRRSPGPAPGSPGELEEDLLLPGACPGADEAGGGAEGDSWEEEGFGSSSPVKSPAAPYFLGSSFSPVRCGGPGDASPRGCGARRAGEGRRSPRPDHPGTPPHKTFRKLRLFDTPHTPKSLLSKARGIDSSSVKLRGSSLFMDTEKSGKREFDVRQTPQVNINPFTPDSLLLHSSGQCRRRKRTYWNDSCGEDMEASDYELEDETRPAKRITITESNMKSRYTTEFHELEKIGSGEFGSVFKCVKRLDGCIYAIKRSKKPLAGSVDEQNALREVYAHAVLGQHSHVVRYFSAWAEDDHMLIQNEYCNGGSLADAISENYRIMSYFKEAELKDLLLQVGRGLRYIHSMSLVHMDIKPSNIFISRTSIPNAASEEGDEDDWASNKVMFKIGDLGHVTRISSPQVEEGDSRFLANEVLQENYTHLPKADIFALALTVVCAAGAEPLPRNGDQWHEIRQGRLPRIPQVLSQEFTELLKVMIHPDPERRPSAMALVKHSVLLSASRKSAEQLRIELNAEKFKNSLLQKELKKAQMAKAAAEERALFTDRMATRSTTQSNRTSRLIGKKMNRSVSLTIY
T7 sequence (Q96SW2 whole entry): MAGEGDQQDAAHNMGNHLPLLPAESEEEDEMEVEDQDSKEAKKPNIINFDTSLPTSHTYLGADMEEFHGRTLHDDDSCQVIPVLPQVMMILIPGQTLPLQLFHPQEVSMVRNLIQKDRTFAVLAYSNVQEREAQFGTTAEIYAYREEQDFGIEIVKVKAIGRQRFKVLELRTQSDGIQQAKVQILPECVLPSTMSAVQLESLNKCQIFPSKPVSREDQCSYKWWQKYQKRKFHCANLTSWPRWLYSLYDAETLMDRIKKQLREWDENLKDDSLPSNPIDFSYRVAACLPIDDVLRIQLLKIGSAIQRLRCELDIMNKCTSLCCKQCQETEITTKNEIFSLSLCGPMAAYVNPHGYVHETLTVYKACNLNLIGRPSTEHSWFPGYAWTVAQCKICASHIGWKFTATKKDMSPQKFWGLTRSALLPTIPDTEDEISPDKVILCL
T7 sequence (Q16531 whole entry partner): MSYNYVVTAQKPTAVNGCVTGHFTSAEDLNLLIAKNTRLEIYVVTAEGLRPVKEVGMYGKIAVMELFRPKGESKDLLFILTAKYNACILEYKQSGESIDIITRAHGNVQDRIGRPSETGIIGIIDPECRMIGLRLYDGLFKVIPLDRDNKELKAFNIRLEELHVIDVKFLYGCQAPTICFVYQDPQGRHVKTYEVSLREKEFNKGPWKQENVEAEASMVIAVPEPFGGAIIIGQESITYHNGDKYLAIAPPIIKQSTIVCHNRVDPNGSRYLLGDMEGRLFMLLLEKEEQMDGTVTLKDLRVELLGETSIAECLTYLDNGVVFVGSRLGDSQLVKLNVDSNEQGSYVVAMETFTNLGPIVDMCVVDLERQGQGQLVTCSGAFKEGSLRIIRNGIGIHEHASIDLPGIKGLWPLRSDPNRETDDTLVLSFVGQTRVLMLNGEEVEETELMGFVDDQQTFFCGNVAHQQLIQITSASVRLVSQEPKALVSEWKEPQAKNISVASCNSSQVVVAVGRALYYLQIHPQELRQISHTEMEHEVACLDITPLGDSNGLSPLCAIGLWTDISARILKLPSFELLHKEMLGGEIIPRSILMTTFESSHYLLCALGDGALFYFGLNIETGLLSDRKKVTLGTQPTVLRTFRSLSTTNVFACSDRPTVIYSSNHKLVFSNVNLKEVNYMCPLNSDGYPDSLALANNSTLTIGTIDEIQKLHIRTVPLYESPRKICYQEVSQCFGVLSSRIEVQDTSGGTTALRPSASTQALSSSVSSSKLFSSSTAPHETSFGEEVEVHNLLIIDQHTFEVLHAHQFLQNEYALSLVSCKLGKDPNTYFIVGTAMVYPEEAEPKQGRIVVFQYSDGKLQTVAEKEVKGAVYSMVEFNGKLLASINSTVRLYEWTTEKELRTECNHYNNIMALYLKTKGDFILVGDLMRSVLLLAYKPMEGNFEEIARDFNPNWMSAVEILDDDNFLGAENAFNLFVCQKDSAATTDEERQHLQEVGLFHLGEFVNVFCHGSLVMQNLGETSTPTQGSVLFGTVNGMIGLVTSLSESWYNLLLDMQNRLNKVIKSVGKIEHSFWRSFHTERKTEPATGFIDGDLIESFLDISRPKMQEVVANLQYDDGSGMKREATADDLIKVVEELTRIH

T3 sequence (Q9UKT9 whole entry): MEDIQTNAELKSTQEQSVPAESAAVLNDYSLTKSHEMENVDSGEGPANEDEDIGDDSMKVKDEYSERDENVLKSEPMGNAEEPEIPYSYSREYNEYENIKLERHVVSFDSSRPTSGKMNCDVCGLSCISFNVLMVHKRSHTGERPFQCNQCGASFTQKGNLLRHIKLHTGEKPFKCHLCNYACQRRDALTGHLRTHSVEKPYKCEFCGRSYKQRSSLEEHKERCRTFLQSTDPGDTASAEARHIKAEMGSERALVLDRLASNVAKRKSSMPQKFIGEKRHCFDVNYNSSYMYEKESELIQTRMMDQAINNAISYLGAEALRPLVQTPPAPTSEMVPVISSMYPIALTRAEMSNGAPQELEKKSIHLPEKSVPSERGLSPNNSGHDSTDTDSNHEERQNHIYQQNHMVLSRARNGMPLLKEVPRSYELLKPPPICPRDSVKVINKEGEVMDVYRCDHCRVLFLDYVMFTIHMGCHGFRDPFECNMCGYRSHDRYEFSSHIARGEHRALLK
T3 sequence (Q96SW2 whole entry): as the sequence (Q96SW2 whole entry) above
T3 sequence (Q16531 whole entry partner): as the sequence (Q16531 whole entry partner) above
T2 sequence (Q96SW2 whole entry): as the sequence (Q96SW2 whole entry) above
T1 sequence (Q13422 whole entry): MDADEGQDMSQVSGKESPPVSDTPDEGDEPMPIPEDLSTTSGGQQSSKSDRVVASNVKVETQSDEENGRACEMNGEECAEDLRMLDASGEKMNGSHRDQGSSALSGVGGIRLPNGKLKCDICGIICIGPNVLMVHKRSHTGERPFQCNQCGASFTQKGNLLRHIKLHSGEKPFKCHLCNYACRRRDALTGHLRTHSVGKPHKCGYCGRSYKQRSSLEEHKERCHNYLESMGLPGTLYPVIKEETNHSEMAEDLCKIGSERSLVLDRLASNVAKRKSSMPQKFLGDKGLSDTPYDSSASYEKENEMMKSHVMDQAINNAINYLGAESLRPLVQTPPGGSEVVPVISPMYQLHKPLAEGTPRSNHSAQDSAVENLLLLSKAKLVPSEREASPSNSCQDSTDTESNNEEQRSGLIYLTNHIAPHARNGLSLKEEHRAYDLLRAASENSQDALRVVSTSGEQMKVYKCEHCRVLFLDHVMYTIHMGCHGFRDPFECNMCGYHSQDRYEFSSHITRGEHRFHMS
T1 sequence (Q96SW2 whole entry): as the sequence (Q96SW2 whole entry) above
T1 sequence (Q16531 whole entry partner): as the sequence (Q16531 whole entry partner) above
T4 sequence (P48729 whole entry): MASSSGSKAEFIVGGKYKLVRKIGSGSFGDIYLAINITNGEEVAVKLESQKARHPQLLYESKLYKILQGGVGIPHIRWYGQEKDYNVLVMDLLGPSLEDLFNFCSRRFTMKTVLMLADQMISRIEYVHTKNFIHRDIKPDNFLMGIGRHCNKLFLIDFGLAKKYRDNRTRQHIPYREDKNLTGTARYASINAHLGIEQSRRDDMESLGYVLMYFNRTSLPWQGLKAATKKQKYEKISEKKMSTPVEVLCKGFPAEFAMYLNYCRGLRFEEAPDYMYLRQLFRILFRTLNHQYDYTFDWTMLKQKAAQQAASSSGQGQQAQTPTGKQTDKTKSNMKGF
T4 sequence (Q96SW2 whole entry): as the sequence (Q96SW2 whole entry) above
T4 sequence (Q16531 whole entry partner): as the sequence (Q16531 whole entry partner) above
T5 sequence (Q9UKS7 whole entry): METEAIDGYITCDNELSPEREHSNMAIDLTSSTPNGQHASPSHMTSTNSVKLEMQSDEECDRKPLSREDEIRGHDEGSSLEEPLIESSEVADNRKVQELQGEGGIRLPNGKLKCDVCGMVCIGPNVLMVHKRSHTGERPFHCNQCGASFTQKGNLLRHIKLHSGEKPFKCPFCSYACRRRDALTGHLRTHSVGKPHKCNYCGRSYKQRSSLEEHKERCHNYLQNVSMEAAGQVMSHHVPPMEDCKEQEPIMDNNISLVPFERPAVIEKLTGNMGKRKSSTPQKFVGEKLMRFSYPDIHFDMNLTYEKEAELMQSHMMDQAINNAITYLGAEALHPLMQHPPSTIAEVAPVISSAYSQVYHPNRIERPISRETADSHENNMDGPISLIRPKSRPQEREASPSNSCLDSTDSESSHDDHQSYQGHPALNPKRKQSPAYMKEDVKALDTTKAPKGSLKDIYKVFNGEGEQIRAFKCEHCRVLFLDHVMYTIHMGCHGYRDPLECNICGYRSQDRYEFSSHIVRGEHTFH
T5 sequence (Q96SW2 whole entry): as the sequence (Q96SW2 whole entry) above
T5 sequence (Q16531 whole entry partner): as the sequence (Q16531 whole entry partner) above

Row | SMILES | IC50 (CCRF-CEM) | IKZF 1 substrate protein remaining % (IKZF1) | IC50 [1] | IKZF3 substrate protein remaining % (IKZF3) | IC50 (CAL-62) | CK1a substrate protein remaining % (CK1α) | IC50 (Vcap) | IKZF2 substrate protein remaining % (IKZF2) | IC50 [2] | IC50 [3] | IC50 (NCI-H1975) | IC50 (MM.1R) | IC50 (SR) | IC50 (SW620) | IC50 (MGC803) | IC50 (Jurkat) | GSPT1 substrate protein remaining % (GSPT1) | Weel substrate protein remaining % (WEE1)
1 | O=C1CCC(N2Cc3cc(CN4CCN(c5cc(Cl)ccc5Cl)CC4)ccc3C2=O)C(=O)N1 (stereo not drawn) [GT-04487, 3-(5-((4-(2,5-dichlorophenyl)piperazin-1-yl)methyl)-1-oxoisoindolin-2-yl)piperidine-2,6-dione] | 5 to 10 nM | B (80%< substrate protein remaining %≤ 100%) | 500 to 1000 nM | B (80%< substrate protein remaining %≤ 100%) | 10 to 50 nM | A (0% ≤ substrate protein remaining % ≤ 80%) | 10 to 50 nM | A (0% ≤ substrate protein remaining % ≤ 80%) | 5 to 10 nM | 100 to 500 nM | 50 to 100 nM | 10 to 50 nM | 100 to 500 nM | 100 to 500 nM | 50 to 100 nM | 5 to 10 nM | A (0% ≤ substrate protein remaining % ≤ 80%) | B (80%< substrate protein remaining %≤ 100%)
2 | Cc1cc(Cl)cc(N2CCN(Cc3ccc4c(c3)CN(C3CCC(=O)NC3=O)C4=O)CC2)n1 (stereo not drawn) [GT-04491, 3-(5-((4-(4-chloro-6-methylpyridin-2-yl)piperazin-1-yl)methyl)-1-oxoisoindolin-2-yl)piperidine-2,6-dione] | 5 to 10 nM | B (80%< substrate protein remaining %≤ 100%) | 500 to 1000 nM | B (80%< substrate protein remaining %≤ 100%) | 10 to 50 nM | A (0% ≤ substrate protein remaining % ≤ 80%) | 10 to 50 nM | A (0% ≤ substrate protein remaining % ≤ 80%) | 5 to 10 nM | 100 to 500 nM | 100 to 500 nM | 10 to 50 nM | 100 to 500 nM | 100 to 500 nM | 500 to 1000 nM | 5 to 10 nM | A (0% ≤ substrate protein remaining % ≤ 80%) | B (80%< substrate protein remaining %≤ 100%)
3 | O=C1CCC(N2Cc3cc(CN4CC=C(c5cccs5)CC4)ccc3C2=O)C(=O)N1 (stereo not drawn) [GT-04494, 3-(1-oxo-5-((4-(thiophen-2-yl)-3,6-dihydropyridin-1(2H)-yl)methyl)isoindolin-2-yl)piperidine-2,6-dione] | 1 to 5 nM | B (80%< substrate protein remaining %≤ 100%) | < 500 nM | B (80%< substrate protein remaining %≤ 100%) | 1 to 5 nM | A (0% ≤ substrate protein remaining % ≤ 80%) | 1 to 5 nM | A (0% ≤ substrate protein remaining % ≤ 80%) | 1 to 5 nM | 10 to 50 nM | 10 to 50 nM | < 1 nM | 5 to 10 nM | 5 to 10 nM | 10 to 50 nM | < 1 nM | A (0% ≤ substrate protein remaining % ≤ 80%) | A (0% ≤ substrate protein remaining % ≤ 80%)
4 | O=C1CCC(N2Cc3cc(CN4CCN(c5cc(F)cc(F)c5)CC4)ccc3C2=O)C(=O)N1 (stereo not drawn) [GT-04496, 3-(5-((4-(3,5-difluorophenyl)piperazin-1-yl)methyl)-1-oxoisoindolin-2-yl)piperidine-2,6-dione] | 5 to 10 nM | B (80%< substrate protein remaining %≤ 100%) | 500 to 1000 nM | B (80%< substrate protein remaining %≤ 100%) | 10 to 50 nM | A (0% ≤ substrate protein remaining % ≤ 80%) | 10 to 50 nM | A (0% ≤ substrate protein remaining % ≤ 80%) | 5 to 10 nM | 100 to 500 nM | 100 to 500 nM | 10 to 50 nM | 100 to 500 nM | 100 to 500 nM | 100 to 500 nM | 5 to 10 nM | A (0% ≤ substrate protein remaining % ≤ 80%) | B (80%< substrate protein remaining %≤ 100%)
5 | O=C1CCC(N2Cc3cc(CN4CCN(c5cccc(Cl)n5)CC4)ccc3C2=O)C(=O)N1 (stereo not drawn) [GT-04497, 3-(5-((4-(6-chloropyridin-2-yl)piperazin-1-yl)methyl)-1-oxoisoindolin-2-yl)piperidine-2,6-dione] | 1 to 5 nM | A (0% ≤ substrate protein remaining % ≤ 80%) | 500 to 1000 nM | A (0% ≤ substrate protein remaining % ≤ 80%) | 1 to 5 nM | A (0% ≤ substrate protein remaining % ≤ 80%) | 5 to 10 nM | A (0% ≤ substrate protein remaining % ≤ 80%) | 1 to 5 nM | 10 to 50 nM | 10 to 50 nM | 1 to 5 nM | 10 to 50 nM | 10 to 50 nM | 50 to 100 nM | 1 to 5 nM | A (0% ≤ substrate protein remaining % ≤ 80%) | A (0% ≤ substrate protein remaining % ≤ 80%)
6 | Cc1cscc1C1=CCN(Cc2ccc3c(c2)CN(C2CCC(=O)NC2=O)C3=O)CC1 (stereo not drawn) [GT-04503, 3-(5-((4-(4-methylthiophen-3-yl)-3,6-dihydropyridin-1(2H)-yl)methyl)-1-oxoisoindolin-2-yl)piperidine-2,6-dione] | < 1 nM | A (0% ≤ substrate protein remaining % ≤ 80%) | < 500 nM | A (0% ≤ substrate protein remaining % ≤ 80%) | < 1 nM | A (0% ≤ substrate protein remaining % ≤ 80%) | 1 to 5 nM | A (0% ≤ substrate protein remaining % ≤ 80%) | < 1 nM | 1 to 5 nM | 1 to 5 nM | 1 to 5 nM | 1 to 5 nM | 1 to 5 nM | 5 to 10 nM | < 1 nM | A (0% ≤ substrate protein remaining % ≤ 80%) | A (0% ≤ substrate protein remaining % ≤ 80%)
